Reference: publication PMC6348446 (Journal of Medicinal Chemistry, 2018)
Where two headings read alike, the source gives them in different places.

Tests used:
[1] = target: T1, BRD9 (Homo sapiens, UniProt Q9H8M2); assay: Western blot of BRD9 levels in HeLa cells after compound treatment; format: cell-based; details: 1 μM compound; for remaining activity at 1 µM: Table 2, % of total protein remaining relative to 0.1% DMSO vehicle, HeLa cell lysates; for BRD9 degradation: HeLa cells
T1 construct: Western blot analysis of BRD9 and BRD7 levels after treatment of HeLa cells; endogenous in cells; host or cells: HeLa
T1 sequence (Q9H8M2 1-597): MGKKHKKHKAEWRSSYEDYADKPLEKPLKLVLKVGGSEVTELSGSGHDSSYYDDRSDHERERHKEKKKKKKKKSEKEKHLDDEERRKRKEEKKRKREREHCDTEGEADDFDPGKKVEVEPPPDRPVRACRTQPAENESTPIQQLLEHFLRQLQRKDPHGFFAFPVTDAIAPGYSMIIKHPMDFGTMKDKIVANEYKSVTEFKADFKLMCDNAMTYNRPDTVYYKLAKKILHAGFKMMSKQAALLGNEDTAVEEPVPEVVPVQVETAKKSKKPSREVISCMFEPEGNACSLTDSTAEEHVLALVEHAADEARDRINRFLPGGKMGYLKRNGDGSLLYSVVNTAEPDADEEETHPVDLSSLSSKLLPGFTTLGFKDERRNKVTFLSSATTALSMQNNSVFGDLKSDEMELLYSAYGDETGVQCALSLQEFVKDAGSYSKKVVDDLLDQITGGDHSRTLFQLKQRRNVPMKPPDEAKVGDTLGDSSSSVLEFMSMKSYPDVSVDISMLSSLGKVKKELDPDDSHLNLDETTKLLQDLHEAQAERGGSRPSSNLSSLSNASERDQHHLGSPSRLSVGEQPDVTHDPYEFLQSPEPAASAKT

[2] = target: T2, BRD7 (Homo sapiens, UniProt Q9NPI1); assay: Western blot of BRD7 levels in HeLa cells after compound treatment; format: cell-based; details: 1 μM compound; for remaining activity at 1 µM: Table 2, % of total protein remaining relative to 0.1% DMSO vehicle, HeLa cell lysates; for BRD7 degradation: HeLa cells
T2 construct: Western blot analysis of BRD9 and BRD7 levels after treatment of HeLa cells; endogenous in cells; host or cells: HeLa
T2 sequence (Q9NPI1 1-651): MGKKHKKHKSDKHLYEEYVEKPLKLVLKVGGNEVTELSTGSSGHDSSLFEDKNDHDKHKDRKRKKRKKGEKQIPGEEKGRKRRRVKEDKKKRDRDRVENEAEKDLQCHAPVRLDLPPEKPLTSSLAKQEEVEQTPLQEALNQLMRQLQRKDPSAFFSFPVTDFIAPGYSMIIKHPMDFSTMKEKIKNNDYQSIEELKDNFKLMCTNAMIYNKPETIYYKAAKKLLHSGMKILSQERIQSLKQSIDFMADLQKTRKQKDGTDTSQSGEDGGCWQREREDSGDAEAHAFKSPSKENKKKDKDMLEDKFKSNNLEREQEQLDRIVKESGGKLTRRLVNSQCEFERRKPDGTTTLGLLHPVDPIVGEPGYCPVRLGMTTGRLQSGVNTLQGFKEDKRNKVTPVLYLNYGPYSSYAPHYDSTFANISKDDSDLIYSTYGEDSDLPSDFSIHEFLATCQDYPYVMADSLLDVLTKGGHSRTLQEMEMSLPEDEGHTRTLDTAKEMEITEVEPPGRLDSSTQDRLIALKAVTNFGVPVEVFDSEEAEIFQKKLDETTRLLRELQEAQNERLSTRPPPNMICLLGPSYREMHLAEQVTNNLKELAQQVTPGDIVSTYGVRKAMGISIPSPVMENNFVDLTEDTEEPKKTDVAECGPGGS
Experimental: HeLa and Hek293 cells were seeded at either 0.3 × 10^6 or 0.5 × 10^6 cells per well in 6-well plate in 2 mL of medium. At 80% confluency, cells were treated with compounds at the desired concentration, with final DMSO concentration of 0.1% v/v. Cells were incubated at 37 °C and 5% of CO2 for the desired time before harvesting. For protein extraction from adherent cells, cells were washed twice with DPBS (Gibco) and lysed with RIPA buffer (Sigma-Aldrich), supplemented with cOmplete Mini EDTA-free protease inhibitor cocktail (Roche). Insoluble material was removed by centrifugation at 14 000 rpm for 15 min at 4 °C. Supernatant was collected and protein concentration was quantified by Bradford assay (Thermo Scientific no. 23200, mean of two replicates). For RI-1 cells, (1–1.5) × 10^6 cells/mL were seeded in 6-well plate in 2 mL of medium. The day after, cells were treated with compounds at the desired concentration, with final DMSO concentration of 0.1% v/v. Before harvesting, cells were incubated at 37 °C and 5% CO2 for the desired time. Cells were washed twice with DPBS (Gibco) and lysed with RIPA buffer (Sigma-Aldrich), supplemented with cOmplete Mini EDTA-free protease inhibitor cocktail (Roche). Lysates were sonicated (10 s) and centrifuged at 14 000 rpm for 20 min at 4 °C. Supernatant was collected, and protein concentration was quantified by Bradford assay (mean of two replicates). For EOL-1 and A-204 cell line, 20 000 cells were seeded in 300 μL per well in a 24-well plate and incubated at 37 °C overnight. Compounds were added from DMSO stock solution using a digital dispenser D300 (Tecan), normalizing for added DMSO, and cells were incubated at 37 °C for 18 h. Medium was removed, and cells were washed with PBS and lysed in 80 μL of lysis buffer (1% Triton, 350 mM KCl, 10 mM Tris, pH 7,4, phosphatase-protease inhibitor cocktail (Thermo Scientific no. 1861281), 10 mM DTT, Benzonase 0.5 μL/ml (Novagen no. 70746 10KU, 25 U/μL)) for 30 min on ice before insoluble debris was pelleted by centrifugation.
Proteins were resolved by SDS–PAGE on NuPage 4–12% Bis-Tris Midi Gel (Invitrogen) and transferred to Amersham Protran 0.45 NC nitrocellulose membrane (GE Healthcare) using wet transfer. The membrane was blocked with 5% w/v milk in Tris-buffered saline (TBS) with 0.1% w/v Tween-20. The following primary antibodies at the given concentration were used: anti β-actin (Cell Signaling Technology, 4970S, 13E5) 1:2000, anti-Brd9 (Bethyl A303-781A) 1:1000, anti-Brd7 (Bethyl A302-304A) 1:1000, VHL rabbit Ab (Cell Signaling Technology, no. 68547S) 1:1000, anti-CRBN (Novus Bio, NBP 1-9-1810) 1:1000, anti-actin hFAB rhodamine antibody, Bio-Rad, no. 12004164. Following incubation with horseradish peroxidase-conjugated secondary antibody (Cell Signaling Technology) or IRDye secondary antibody (Licor), bands were developed using Amersham ECL Prime Western blotting detection kit on Amersham Hyperfilm ECL film (Amersham) or ChemiDoc imaging system (Bio-Rad). ImageJ software was used for band quantification, and the last was reported as relative amount as ratio of each protein band relative to the lane’s loading control. Then the values obtained were normalized to 0.1% DMSO vehicle control. Alternatively, protein levels were determined on a WES capillary electrophoresis instrument (Proteinsimple) using a BRD9 antibody (Bethyl A303-781A) and a GAPDH antibody (Abcam no. ab9485) for normalization. DC50 and half-lives were determined by assuming a linear model between the two data points across 50% protein level mark.

| SMILES | remaining activity at 1 µM ([1]; 4 h, read-out: BRD9 4 h (%)) | BRD9 degradation ([1]; 4 h) | BRD9 degradation ([1]; 16 h) | remaining activity at 1 µM ([2]; 4 h, read-out: BRD7 4 h (%)) | remaining activity at 1 µM ([2]; 16 h, read-out: BRD7 16 h (%)) | BRD7 degradation ([2]; 4 h) | BRD7 degradation ([2]; 16 h) | remaining activity at 1 µM ([1]; 16 h, read-out: BRD9 16 h (%)) |
| --- | --- | --- | --- | --- | --- | --- | --- | --- |
| COc1cc(-c2cn(C)c(=O)c3cnccc23)cc(OC)c1CN1CCN(CCOCCOCCOCCOCC(=O)N[C@H](C(=O)N2C[C@H](O)C[C@H]2C(=O)NCc2ccc(-c3scnc3C)cc2)C(C)(C)C)CC1 [Compound 6, (2S,4R)-1-((S)-2-(tert-Butyl)-17-(4-(2,6-dimethoxy-4-(2-methyl-1-oxo-1,2-dihydro-2,7-naphthyridin-4-yl)benzyl)piperazin-1-yl)-4-oxo-6,9,12,15-tetraoxa-3-azaheptadecanoyl)-4-hydroxy-N-(4-(4-methylthiazol-5-yl)benzyl)pyrrolidine-2-carboxamide] | 99% | at most 20% | ≤ 30% | 102% | 119% | at most 20% | ≤ 30% |  |
| COc1cc(-c2cn(C)c(=O)c3cnccc23)cc(OC)c1CN1CCN(CCOCCOCC(=O)NCCNc2cccc3c2C(=O)N(C2CCC(=O)NC2=O)C3=O)CC1 (stereo not drawn) [Compound 7, 2-(2-(2-(4-(2,6-Dimethoxy-4-(2-methyl-1-oxo-1,2-dihydro-2,7-naphthyridin-4-yl)benzyl)piperazin-1-yl)ethoxy)ethoxy)-N-(2-((2-(2,6-dioxopiperidin-3-yl)-1,3-dioxoisoindolin-4-yl)amino)ethyl)acetamide] |  | strong degradation |  |  |  | no BRD7 degradation |  |  |
| COc1cc(-c2cn(C)c(=O)c3cnccc23)cc(OC)c1CN1CCN(CCOCCOCCOCCOCC(=O)NCCNc2cccc3c2C(=O)N(C2CCC(=O)NC2=O)C3=O)CC1 (stereo not drawn) [Compound 8, 14-(4-(2,6-Dimethoxy-4-(2-methyl-1-oxo-1,2-dihydro-2,7-naphthyridin-4-yl)benzyl)piperazin-1-yl)-N-(2-((2-(2,6-dioxopiperidin-3-yl)-1,3-dioxoisoindolin-4-yl)amino)ethyl)-3,6,9,12-tetraoxatetradecanamide] |  | strong degradation |  |  |  | no BRD7 degradation |  |  |
| COc1cc(-c2cn(C)c(=O)c3cnccc23)cc(OC)c1CN1CCN(C(=O)COCCOCCOCC(=O)N[C@H](C(=O)N2C[C@H](O)C[C@H]2C(=O)NCc2ccc(-c3scnc3C)cc2)C(C)(C)C)CC1 [Compound 25] | 74% |  |  | 95% | 113% |  |  | 73% |
